{
  "source": "ChEMBL document CHEMBL1154277",
  "about": "“Discovery of N-substituted pyridinones as potent and selective inhibitors of p38 kinase” (Bioorg Med Chem Lett, 2009)",
  "key": {"[1]": {"test_system": "Epidermal growth factor receptor (Homo sapiens), P00533 [L861Q]", "assay": "Inhibition of EGFR L861Q (mutant) at 10 uM", "assay_type": "protein assay"}, "[2]": {"target": "Tyrosine-protein kinase receptor UFO (Homo sapiens) (UniProt P30530)", "assay": "Inhibition of AXL at 10 uM"}, "[3]": {"target": "Calcium/calmodulin-dependent protein kinase type 1 (Homo sapiens) (UniProt Q14012)", "assay": "Inhibition of CAMK1 at 10 uM"}, "[4]": {"target": "Mitogen-activated protein kinase 14 (Homo sapiens, UniProt Q16539)", "assay": "Inhibition of p38alpha at 10 uM"}, "[5]": {"target": "Testis-specific serine/threonine-protein kinase 2 (Homo sapiens) (UniProt Q96PF2)", "sequence (Q96PF2 whole entry)": "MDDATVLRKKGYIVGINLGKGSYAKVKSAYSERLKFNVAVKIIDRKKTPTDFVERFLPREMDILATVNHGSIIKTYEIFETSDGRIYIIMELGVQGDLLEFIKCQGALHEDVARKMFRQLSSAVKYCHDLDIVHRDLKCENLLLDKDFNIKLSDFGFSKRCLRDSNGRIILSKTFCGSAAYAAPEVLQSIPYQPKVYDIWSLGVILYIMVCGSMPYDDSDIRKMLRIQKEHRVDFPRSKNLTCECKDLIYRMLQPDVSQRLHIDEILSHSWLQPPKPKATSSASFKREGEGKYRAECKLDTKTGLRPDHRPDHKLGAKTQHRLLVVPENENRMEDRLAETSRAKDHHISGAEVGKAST", "assay": "Inhibition of TSSK2 at 10 uM"}, "[6]": {"test_system": "Receptor-type tyrosine-protein kinase FLT3 (Homo sapiens), P36888 [D835Y]", "assay": "Inhibition of FLT3 D835Y (mutant) at 10 uM"}, "[7]": {"target": "Serine/threonine-protein kinase D3 (Homo sapiens) (UniProt O94806)", "assay": "Inhibition of PKD3 at 10 uM"}, "[8]": {"target": "Serine/threonine-protein kinase Sgk2 (Homo sapiens) (UniProt Q9HBY8)", "assay": "Inhibition of SGK2 at 10 uM"}, "[9]": {"target": "Inhibitor of nuclear factor kappa-B kinase subunit epsilon (Homo sapiens) (UniProt Q14164)", "assay": "Inhibition of IKKepsilon at 10 uM"}, "[10]": {"target": "MAP kinase-activated protein kinase 3 (Homo sapiens) (UniProt Q16644)", "assay": "Inhibition of MAPKAPK3 at 10 uM"}, "[11]": {"target": "SRSF protein kinase 3 (Homo sapiens) (UniProt Q9UPE1)", "assay": "Inhibition of MSSK1 at 10 uM"}, "[12]": {"assay": "Half life in po dosed Sprague-Dawley rat", "assay_type": "ADME, organism-based", "conditions": "in vivo"}, "[13]": {"target": "ALK tyrosine kinase receptor (Homo sapiens) (UniProt Q9UM73)", "assay": "Inhibition of ALK at 10 uM"}, "[14]": {"target": "Serine/threonine-protein kinase 24 (Homo sapiens) (UniProt Q9Y6E0)", "sequence (Q9Y6E0 whole entry, looked up)": "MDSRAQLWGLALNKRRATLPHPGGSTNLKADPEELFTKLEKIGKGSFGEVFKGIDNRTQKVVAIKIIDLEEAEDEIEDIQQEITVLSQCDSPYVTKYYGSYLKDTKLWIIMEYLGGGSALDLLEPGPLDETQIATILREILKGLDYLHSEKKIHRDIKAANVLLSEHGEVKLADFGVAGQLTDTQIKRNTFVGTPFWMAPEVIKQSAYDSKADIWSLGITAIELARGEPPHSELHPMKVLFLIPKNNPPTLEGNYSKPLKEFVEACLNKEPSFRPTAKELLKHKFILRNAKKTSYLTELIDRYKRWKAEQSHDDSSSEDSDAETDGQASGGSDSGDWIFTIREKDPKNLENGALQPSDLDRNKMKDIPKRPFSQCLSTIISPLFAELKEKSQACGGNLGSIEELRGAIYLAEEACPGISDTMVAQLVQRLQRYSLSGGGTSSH", "assay": "Inhibition of MST3 at 10 uM"}, "[15]": {"target": "Macrophage-stimulating protein receptor (Homo sapiens) (UniProt Q04912)", "assay": "Inhibition of RON at 10 uM"}, "[16]": {"assay": "Metabolic stability in human liver microsomes assessed as compound remaining at 2 uM after 45 mins by LC/MS analysis", "assay_type": "ADME, Microsome", "conditions": "read-out: Stability"}, "[17]": {"target": "Serine/threonine-protein kinase PLK2 (Homo sapiens) (UniProt Q9NYY3)", "assay": "Inhibition of PLK2 at 10 uM"}, "[18]": {"target": "Tyrosine-protein kinase Fgr (Homo sapiens) (UniProt P09769)", "assay": "Inhibition of FGR at 10 uM"}, "[19]": {"target": "Homeodomain-interacting protein kinase 2 (Homo sapiens) (UniProt Q9H2X6)", "assay": "Inhibition of HIPK2 at 10 uM"}, "[20]": {"target": "Serine/threonine-protein kinase pim-1 (Homo sapiens) (UniProt P11309)", "assay": "Inhibition of PIM1 at 10 uM"}, "[21]": {"target": "Serine/threonine-protein kinase BRSK1 (Homo sapiens) (UniProt Q8TDC3)", "sequence (Q8TDC3 whole entry)": "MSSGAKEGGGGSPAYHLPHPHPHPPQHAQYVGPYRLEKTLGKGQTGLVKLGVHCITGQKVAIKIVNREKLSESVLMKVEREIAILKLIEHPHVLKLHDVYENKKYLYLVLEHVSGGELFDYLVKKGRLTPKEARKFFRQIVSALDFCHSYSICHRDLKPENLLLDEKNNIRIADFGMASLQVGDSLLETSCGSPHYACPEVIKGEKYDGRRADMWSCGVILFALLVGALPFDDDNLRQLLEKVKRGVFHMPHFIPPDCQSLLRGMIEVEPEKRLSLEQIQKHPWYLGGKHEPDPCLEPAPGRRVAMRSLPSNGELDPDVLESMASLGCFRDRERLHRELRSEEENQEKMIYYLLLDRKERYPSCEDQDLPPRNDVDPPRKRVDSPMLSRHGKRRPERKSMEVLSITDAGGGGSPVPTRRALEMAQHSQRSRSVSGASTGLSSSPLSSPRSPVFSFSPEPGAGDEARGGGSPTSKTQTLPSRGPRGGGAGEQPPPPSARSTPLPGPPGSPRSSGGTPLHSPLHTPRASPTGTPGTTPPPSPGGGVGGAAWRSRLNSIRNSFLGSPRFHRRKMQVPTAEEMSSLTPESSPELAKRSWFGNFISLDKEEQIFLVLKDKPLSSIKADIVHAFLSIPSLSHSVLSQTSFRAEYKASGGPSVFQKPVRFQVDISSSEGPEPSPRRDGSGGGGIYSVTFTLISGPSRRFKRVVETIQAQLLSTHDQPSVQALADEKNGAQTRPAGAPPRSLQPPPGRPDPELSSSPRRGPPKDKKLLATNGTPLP", "assay": "Inhibition of BRSK1 at 10 uM"}, "[22]": {"target": "Dual specificity protein kinase CLK2 (Homo sapiens) (UniProt P49760)", "assay": "Inhibition of CLK2 at 10 uM"}, "[23]": {"target": "Dual specificity protein kinase CLK1 (Homo sapiens) (UniProt P49759)", "assay": "Inhibition of CLK1 at 10 uM"}, "[24]": {"target": "Proto-oncogene tyrosine-protein kinase receptor Ret (Homo sapiens) (UniProt P07949)", "sequence (P07949 whole entry)": "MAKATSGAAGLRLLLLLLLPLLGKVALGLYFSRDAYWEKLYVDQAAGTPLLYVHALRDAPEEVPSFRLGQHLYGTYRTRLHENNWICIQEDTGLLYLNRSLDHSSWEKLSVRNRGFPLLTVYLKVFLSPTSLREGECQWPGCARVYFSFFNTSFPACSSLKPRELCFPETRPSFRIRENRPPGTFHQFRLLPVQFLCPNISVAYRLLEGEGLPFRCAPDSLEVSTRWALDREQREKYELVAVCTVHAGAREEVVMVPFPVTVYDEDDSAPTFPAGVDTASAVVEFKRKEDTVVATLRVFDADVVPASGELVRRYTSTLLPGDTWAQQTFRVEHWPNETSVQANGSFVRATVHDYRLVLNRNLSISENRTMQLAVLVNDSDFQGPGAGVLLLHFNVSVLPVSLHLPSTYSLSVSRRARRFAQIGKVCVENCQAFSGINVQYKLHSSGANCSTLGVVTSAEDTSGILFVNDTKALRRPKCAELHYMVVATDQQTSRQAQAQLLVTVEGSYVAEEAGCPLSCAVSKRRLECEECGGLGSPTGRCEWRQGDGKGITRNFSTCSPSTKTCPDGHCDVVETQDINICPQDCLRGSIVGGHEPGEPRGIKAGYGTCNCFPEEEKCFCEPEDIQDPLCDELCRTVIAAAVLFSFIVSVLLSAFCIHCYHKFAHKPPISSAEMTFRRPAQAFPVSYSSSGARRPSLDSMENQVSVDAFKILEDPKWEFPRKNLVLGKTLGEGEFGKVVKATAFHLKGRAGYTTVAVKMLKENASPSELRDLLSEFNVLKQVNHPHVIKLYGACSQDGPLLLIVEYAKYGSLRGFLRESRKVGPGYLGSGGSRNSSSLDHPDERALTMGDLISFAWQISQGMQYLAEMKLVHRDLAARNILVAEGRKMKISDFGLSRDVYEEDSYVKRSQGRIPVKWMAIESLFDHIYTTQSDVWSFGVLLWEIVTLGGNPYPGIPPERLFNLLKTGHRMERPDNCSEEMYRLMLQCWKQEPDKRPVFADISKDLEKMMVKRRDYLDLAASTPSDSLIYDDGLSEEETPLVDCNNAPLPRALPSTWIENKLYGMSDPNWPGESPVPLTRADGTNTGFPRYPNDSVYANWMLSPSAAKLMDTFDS", "assay": "Inhibition of RET at 10 uM"}, "[25]": {"target": "Proto-oncogene tyrosine-protein kinase Src (Homo sapiens) (UniProt P12931)", "assay": "Inhibition of SRC at 10 uM"}, "[26]": {"target": "Tyrosine-protein kinase JAK2 (Homo sapiens) (UniProt O60674)", "assay": "Inhibition of JAK2 at 10 uM"}, "[27]": {"target": "Tyrosine-protein kinase Fer (Homo sapiens) (UniProt P16591)", "assay": "Inhibition of FER at 10 uM"}, "[28]": {"target": "Rhodopsin kinase GRK7 (Homo sapiens) (UniProt Q8WTQ7)", "assay": "Inhibition of GRK7 at 10 uM"}, "[29]": {"target": "Calcium/calmodulin-dependent protein kinase type II subunit alpha (Homo sapiens) (UniProt Q9UQM7)", "sequence (Q9UQM7 whole entry)": "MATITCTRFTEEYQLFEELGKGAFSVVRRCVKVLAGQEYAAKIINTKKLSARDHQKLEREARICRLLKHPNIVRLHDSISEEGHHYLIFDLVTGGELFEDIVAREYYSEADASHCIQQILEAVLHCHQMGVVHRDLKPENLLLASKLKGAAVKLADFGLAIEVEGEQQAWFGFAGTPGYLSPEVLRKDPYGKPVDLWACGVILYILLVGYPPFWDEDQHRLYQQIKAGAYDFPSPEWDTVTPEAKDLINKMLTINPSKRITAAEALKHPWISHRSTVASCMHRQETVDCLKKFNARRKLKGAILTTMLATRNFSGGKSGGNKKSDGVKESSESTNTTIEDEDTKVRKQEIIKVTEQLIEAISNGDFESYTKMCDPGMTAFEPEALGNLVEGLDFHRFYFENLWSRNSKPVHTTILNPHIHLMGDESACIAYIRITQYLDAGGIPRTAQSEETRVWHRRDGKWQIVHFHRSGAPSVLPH", "assay": "Inhibition of CAMK2alpha at 10 uM"}, "[30]": {"target": "SRSF protein kinase 2 (Homo sapiens) (UniProt P78362)", "assay": "Inhibition of SRPK2 at 10 uM"}, "[31]": {"target": "Dual specificity tyrosine-phosphorylation-regulated kinase 1B (Homo sapiens) (UniProt Q9Y463)", "assay": "Inhibition of DYRK1B at 10 uM"}, "[32]": {"target": "Serine/threonine-protein kinase 26 (Homo sapiens) (UniProt Q9P289)", "sequence (Q9P289 2-416 limits assumed)": "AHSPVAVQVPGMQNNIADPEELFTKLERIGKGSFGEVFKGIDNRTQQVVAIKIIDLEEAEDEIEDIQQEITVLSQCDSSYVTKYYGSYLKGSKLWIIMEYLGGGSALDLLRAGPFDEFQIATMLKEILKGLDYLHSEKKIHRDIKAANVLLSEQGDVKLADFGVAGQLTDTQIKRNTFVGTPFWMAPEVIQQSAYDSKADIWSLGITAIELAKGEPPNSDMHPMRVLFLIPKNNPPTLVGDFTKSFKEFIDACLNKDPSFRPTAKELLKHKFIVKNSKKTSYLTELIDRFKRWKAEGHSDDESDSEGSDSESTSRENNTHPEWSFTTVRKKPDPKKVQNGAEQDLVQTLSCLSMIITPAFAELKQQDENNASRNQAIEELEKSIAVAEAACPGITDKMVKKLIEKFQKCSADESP", "assay": "Inhibition of MST4 at 10 uM"}, "[33]": {"target": "RAC-gamma serine/threonine-protein kinase (Homo sapiens) (UniProt Q9Y243)", "assay": "Inhibition of AKT3 at 10 uM"}, "[34]": {"target": "Serine/threonine-protein kinase Nek9 (Homo sapiens) (UniProt Q8TD19)", "sequence (Q8TD19 whole entry)": "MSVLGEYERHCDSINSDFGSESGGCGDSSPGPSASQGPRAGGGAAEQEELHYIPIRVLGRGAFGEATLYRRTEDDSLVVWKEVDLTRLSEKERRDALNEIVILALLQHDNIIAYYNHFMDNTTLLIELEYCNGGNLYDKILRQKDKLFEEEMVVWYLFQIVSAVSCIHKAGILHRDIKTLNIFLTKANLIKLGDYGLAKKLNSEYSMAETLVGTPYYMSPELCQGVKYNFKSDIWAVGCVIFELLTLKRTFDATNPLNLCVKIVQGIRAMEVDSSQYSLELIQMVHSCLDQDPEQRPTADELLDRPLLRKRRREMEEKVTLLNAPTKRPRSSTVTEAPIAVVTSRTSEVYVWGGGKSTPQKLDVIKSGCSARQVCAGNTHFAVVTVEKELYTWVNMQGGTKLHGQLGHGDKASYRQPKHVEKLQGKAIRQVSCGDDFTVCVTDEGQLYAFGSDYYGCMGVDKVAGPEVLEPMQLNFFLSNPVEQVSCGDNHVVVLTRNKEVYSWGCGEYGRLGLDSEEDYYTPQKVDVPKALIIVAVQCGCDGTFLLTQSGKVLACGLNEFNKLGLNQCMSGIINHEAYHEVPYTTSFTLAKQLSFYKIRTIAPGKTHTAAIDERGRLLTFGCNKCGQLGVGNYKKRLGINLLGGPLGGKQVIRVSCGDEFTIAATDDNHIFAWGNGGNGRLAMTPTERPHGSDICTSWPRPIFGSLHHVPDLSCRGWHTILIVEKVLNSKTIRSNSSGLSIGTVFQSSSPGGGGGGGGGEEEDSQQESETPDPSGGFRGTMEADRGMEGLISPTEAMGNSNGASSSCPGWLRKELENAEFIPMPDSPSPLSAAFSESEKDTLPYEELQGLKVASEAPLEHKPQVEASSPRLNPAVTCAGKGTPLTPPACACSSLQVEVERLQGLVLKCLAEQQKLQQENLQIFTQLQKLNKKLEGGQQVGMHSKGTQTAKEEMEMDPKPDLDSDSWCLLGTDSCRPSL", "assay": "Inhibition of NEK9 at 10 uM"}, "[35]": {"target": "Protein kinase C beta type (Homo sapiens) (UniProt P05771)", "assay": "Inhibition of PKCbeta2 at 10 uM"}, "[36]": {"target": "Ribosomal protein S6 kinase beta-1 (Homo sapiens) (UniProt P23443)", "assay": "Inhibition of p70S6K at 10 uM"}, "[37]": {"target": "Beta-adrenergic receptor kinase 1 (Homo sapiens) (UniProt P25098)", "assay": "Inhibition of GRK2 at 10 uM"}, "[38]": {"target": "Cytoplasmic tyrosine-protein kinase BMX (Homo sapiens) (UniProt P51813)", "assay": "Inhibition of BMX at 10 uM"}, "[39]": {"target": "Tyrosine-protein kinase BTK (Homo sapiens) (UniProt Q06187)", "assay": "Inhibition of BTK at 10 uM"}, "[40]": {"target": "Serine/threonine-protein kinase 25 (Homo sapiens) (UniProt O00506)", "assay": "Inhibition of YSK1 at 10 uM"}, "[41]": {"target": "Protein kinase C zeta type (Homo sapiens) (UniProt Q05513)", "assay": "Inhibition of PKCzeta at 10 uM"}, "[42]": {"target": "Serine/threonine-protein kinase Nek6 (Homo sapiens) (UniProt Q9HC98)", "sequence (Q9HC98 whole entry)": "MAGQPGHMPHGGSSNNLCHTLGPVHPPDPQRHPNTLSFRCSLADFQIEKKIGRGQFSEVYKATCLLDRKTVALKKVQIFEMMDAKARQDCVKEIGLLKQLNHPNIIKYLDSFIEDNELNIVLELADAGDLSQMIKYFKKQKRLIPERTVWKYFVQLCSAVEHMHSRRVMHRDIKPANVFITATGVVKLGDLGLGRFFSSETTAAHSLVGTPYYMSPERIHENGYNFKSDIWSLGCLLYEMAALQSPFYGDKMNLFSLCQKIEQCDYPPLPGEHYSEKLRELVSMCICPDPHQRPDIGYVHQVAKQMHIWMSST", "assay": "Inhibition of NEK6 at 10 uM"}, "[43]": {"test_system": "Leucine-rich repeat serine/threonine-protein kinase 2 (Homo sapiens), Q5S007 [G2019S]", "assay": "Inhibition of LRRK2 G2019S mutant at 10 uM"}, "[44]": {"target": "Ephrin type-B receptor 2 (Homo sapiens) (UniProt P29323)", "assay": "Inhibition of EPHB2 at 10 uM"}, "[45]": {"target": "Tyrosine-protein kinase ZAP-70 (Homo sapiens) (UniProt P43403)", "assay": "Inhibition of ZAP70 at 10 uM"}, "[46]": {"test_system": "Serine/threonine-protein kinase B-raf (Homo sapiens), P15056 [V600E]", "assay": "Inhibition of B-Raf V599E (mutant) at 10 uM"}, "[47]": {"target": "Insulin receptor-related protein (Homo sapiens) (UniProt P14616)", "assay": "Inhibition of INSRR at 10 uM"}},
  "data": [
    {"smiles": "Cc1cc(OCc2ccc(F)cc2F)c(Br)c(=O)n1Cc1ccc(CN(C)C)cc1", "values": [
      {"measurement": "inhibition", "setting": "[1]", "value": "< 50", "unit": "%"},
      {"measurement": "inhibition", "setting": "[2]", "value": "< 50", "unit": "%"},
      {"measurement": "inhibition", "setting": "[3]", "value": "< 50", "unit": "%"},
      {"measurement": "inhibition", "setting": "[4]", "value": 100, "unit": "%"},
      {"measurement": "inhibition", "setting": "[5]", "value": "< 50", "unit": "%"},
      {"measurement": "inhibition", "setting": "[6]", "value": "< 50", "unit": "%"},
      {"measurement": "inhibition", "setting": "[7]", "value": "< 50", "unit": "%"},
      {"measurement": "inhibition", "setting": "[8]", "value": "< 50", "unit": "%"},
      {"measurement": "inhibition", "setting": "[9]", "value": "< 50", "unit": "%"},
      {"measurement": "inhibition", "setting": "[10]", "value": "< 50", "unit": "%"},
      {"measurement": "inhibition", "setting": "[11]", "value": "< 50", "unit": "%"},
      {"measurement": "half-life", "setting": "[12]", "value": 4.97, "unit": "h"},
      {"measurement": "inhibition", "setting": "[13]", "value": "< 50", "unit": "%"},
      {"measurement": "inhibition", "setting": "[14]", "value": "< 50", "unit": "%"},
      {"measurement": "inhibition", "setting": "[15]", "value": "< 50", "unit": "%"},
      {"measurement": "remaining at 0.75 h, 2 µM", "setting": "[16]", "value": 57, "unit": "%"},
      {"measurement": "inhibition", "setting": "[17]", "value": "< 50", "unit": "%"},
      {"measurement": "inhibition", "setting": "[18]", "value": "< 50", "unit": "%"},
      {"measurement": "inhibition", "setting": "[19]", "value": "< 50", "unit": "%"},
      {"measurement": "inhibition", "setting": "[20]", "value": "< 50", "unit": "%"},
      {"measurement": "inhibition", "setting": "[21]", "value": "< 50", "unit": "%"},
      {"measurement": "inhibition", "setting": "[22]", "value": "< 50", "unit": "%"},
      {"measurement": "inhibition", "setting": "[23]", "value": "< 50", "unit": "%"},
      {"measurement": "inhibition", "setting": "[24]", "value": "< 50", "unit": "%"},
      {"measurement": "inhibition", "setting": "[25]", "value": "< 50", "unit": "%"},
      {"measurement": "inhibition", "setting": "[26]", "value": "< 50", "unit": "%"},
      {"measurement": "inhibition", "setting": "[27]", "value": "< 50", "unit": "%"},
      {"measurement": "inhibition", "setting": "[28]", "value": "< 50", "unit": "%"},
      {"measurement": "inhibition", "setting": "[29]", "value": "< 50", "unit": "%"},
      {"measurement": "inhibition", "setting": "[30]", "value": "< 50", "unit": "%"},
      {"measurement": "inhibition", "setting": "[31]", "value": "< 50", "unit": "%"},
      {"measurement": "inhibition", "setting": "[32]", "value": "< 50", "unit": "%"},
      {"measurement": "inhibition", "setting": "[33]", "value": "< 50", "unit": "%"},
      {"measurement": "inhibition", "setting": "[34]", "value": "< 50", "unit": "%"},
      {"measurement": "inhibition", "setting": "[35]", "value": "< 50", "unit": "%"},
      {"measurement": "inhibition", "setting": "[36]", "value": "< 50", "unit": "%"},
      {"measurement": "inhibition", "setting": "[37]", "value": "< 50", "unit": "%"},
      {"measurement": "inhibition", "setting": "[38]", "value": "< 50", "unit": "%"},
      {"measurement": "inhibition", "setting": "[39]", "value": "< 50", "unit": "%"},
      {"measurement": "inhibition", "setting": "[40]", "value": "< 50", "unit": "%"},
      {"measurement": "inhibition", "setting": "[41]", "value": "< 50", "unit": "%"},
      {"measurement": "inhibition", "setting": "[42]", "value": "< 50", "unit": "%"},
      {"measurement": "inhibition", "setting": "[43]", "value": "< 50", "unit": "%"},
      {"measurement": "inhibition", "setting": "[44]", "value": "< 50", "unit": "%"},
      {"measurement": "inhibition", "setting": "[45]", "value": "< 50", "unit": "%"},
      {"measurement": "inhibition", "setting": "[46]", "value": "< 50", "unit": "%"},
      {"measurement": "inhibition", "setting": "[47]", "value": "< 50", "unit": "%"}
    ]}
  ]
}
